Reference: patent publication US4558127A, “5-Fluorouracil nitroxyl derivatives possessing antitumor activity” (priority 1984, dated 1985)
“Also recorded” adds a separate entry of the source. Where a name gives a salt, the structure may show the parent alone.

Tests used:
[1] = Toxicity (LD50), intraperitoneal administration, mongrel white mice, Burns method; format: in vivo, mouse
Description: Toxicity of the compounds according to the present invention has been determined on mongrel white mice in experimental intraperitoneal administration of these compounds and evaluated by the Burns method (using curves of accumulation of the animal death frequencies vs. dose).
As the toxicity characteristic use was made of the dose causing death of 50% of the animals employed for the experiment (LD50).
For the determination of toxicity of (1,3-bis-(2,2,5,5-tetramethyl-1-oxyl-Δ^3 -pyrrolin-3-oyl)-5-fluorouracyl(compound I), 1-(2,2,5,5-tetramethyl-1-oxyl-Δ^3 -pyrrolin-3-oyl)-5-fluorouracyl (compound II) and 3-(2,2,5,5-tetramethyl-1-oxyl-Δ^3 -pyrrolin-3-oyl)-5-fluorouracyl (compound III), these compounds were administered intraperitoneally in the form of an emulsion in a 10% aqueous solution of polyoxyethylsorbitan monooleate (Tween-80, Ferak Berlin West Germany).
For the determination of toxicity of sodium salt of 3-(2,2,5,5-tetramethyl-1-oxyl-Δ^3 -pyrrolin-3-oyl)-5-fluorouracyl (compound IV), Ftorafur and 5-fluorouracyl, these compounds were also administered intraperitoneally in the form of aqueous solutions.

leukemia La [2] = assay: Antitumor activity on grafted leukemia La in mice (ELS, kinetic criterion, chemotherapeutic index); format: in vivo, mouse; details: for Chemotherapeutic index I60 = LD10/ED60 / ELS (extension of average life span) / kinetic criterion (.chi.) = 1-.phi.t/.phi.c: La, C57Bl mice; for Chemotherapeutic index I60 = LD10/ED60: i/p
Description: (§1) For the determination of antitumor activity these compounds (I, II, III, IV), 5-fluorouracyl and Ftorafur were used in the same solvents as in the determination of toxicity.
(§2) The determination of antitumor activity was effected on grafted tumors of mice: leukemia L-1210, leukemia P-388, Leukemia La, melanoma B-16, adenocarcinoma 755 (Ca-755), as well as on grafted tumors of rats: Schwetz erythroleukosis, Walker carcinosarcoma (WCS), Geren carcinoma.
Leukemia La was grafted intraperitoneally using a suspension of leukemic cells in a physiological solution. The inoculum contained 10^8 of leukemia cells. […]
In the determination of the antitumor activity the test compounds were introduced in equitoxic doses.
(§3) The criterion of the antitumor activity for leukemia P-338, L-1210 and La is the extension of an average life span (ELS) of the test animals as compared to the control ones, expressed in percent and calculated by the formula: [formula] wherein Lt --life span of animals in the test group;
(§4) Lc --life span of animals in the control group, i.e. without administration of the test compounds.
(§5) The comparative assessment of the scope of therapeutic action is effected using chemotherapeutic indices I40, I60 and I100 : I40 =LD10 /ED40, I60 =LD10 /ED60 I100 =LD10 /ED100, where LD10 =dose causing death of 10% of the animals; ED40, ED60 and ED100 are effective doses causing extension of the animal's life span by 40, 60 and 100 percent respectively.

melanoma B-16 = assay: Antitumor activity on grafted melanoma B-16 in mice (inhibition of tumor volume gain); format: in vivo, mouse; details: for Inhibition of tumor volume gain: B-16, CBAF1 mice
Description: as §1, §2
(§6) In the determination of the antitumor activity the test compounds were introduced in equitoxic doses. Ftorafur was also used in the optimal dose which is equal to […].
(§7) As the criterion of antitumor activity on solid tumors used is the inhibition (I) of the tumor volume gain in comparison with the control, expressed in percent and calculated by the formula: [formula] wherein Vc --average volume of the tumor in the control,
(§8) Vt --average volume of the tumor in the experiment.

Schwetz erythroleukosis = assay: Antitumor activity on grafted Schwetz erythroleukosis in rats; format: in vivo, rat; details: for Inhibition of tumor volume gain: mongrel rats, days 7-14
Description: as §1, §2, §6, §7, §8

sarcoma 180 = details: background art; cited from earlier work
Harding-Passey melanoma = details: background art; cited from earlier work
Walker carcinosarcoma = details: background art; cited from earlier work
[3] = test system: alveolar carcinoma of liver; details: background art; cited from earlier work
[4] = background art; cited from earlier work
adenocarcinoma 755 = assay: Kinetic curves of tumor volume gain, adenocarcinoma 755 in mice (FIG. 2); details: C 57 B1 mice, equimolar single doses 0.2 mmol/kg i/p, daily over 10 days
Protocol: To reveal the antitumor activity and kinetic characteristic of the therapeutic effectiveness of compound (IV) and Ftorafur in the case of adenocarcinoma 755, a series of experiments was conducted on mice C 57 B1. Adenocarcinoma 755 was grafted using a tumor cell suspension in a physiological solution (dilution 1:1 by mass) and was administered hypodermally in the dose of 0.3 ml to each mouse. The test compounds were administered intraperitoneally, starting from the 1-st day after grafting of the tumor, daily over the period of 10 days.
The tumor volume increase (V) of adenocarcinoma 755 was determined in cm^3 for 28 days (.tau.).
In the kinetic curve 5 experimental points corresponding to the control experiment are conventionally shown as circles, while experimental points corresponding to the use of Ftorafur are conventionally shown as squares.

leukemia L-1210 = assay: Antitumor activity on grafted leukemia L-1210 in mice; format: in vivo, mouse; details: for ELS (extension of average life span): control life span 7,5 days
Description: as §1, §2
Leukemia L-1210 was grafted intraperitoneally, 10^5 cells in 0.2 ml of ascitic liquid.
as §6, §3, §4, §5

leukemia P-388 = assay: Antitumor activity on grafted leukemia P-388 in mice; format: in vivo, mouse; details: for ELS (extension of average life span): control life span 10 days
Description: as §1, §2
Leukemia P-388 was grafted intraperitoneally, 10^6 cells in 0.2 ml of ascitic liquid.
as §6, §3, §4, §5

[5] = test system: adenocarcinoma 755 (Ca-755); assay: Antitumor activity on grafted adenocarcinoma 755 in mice; format: in vivo, mouse
Description: as §1, §2, §6, §7, §8

[6] = test system: Walker carcinosarcoma (WCS); assay: Antitumor activity on grafted Walker carcinosarcoma in rats; format: in vivo, rat
Description: as §1, §2, §6, §7, §8

Geren carcinoma = assay: Antitumor activity on grafted Geren carcinoma in rats; format: in vivo, rat; details: mongrel rats, single dose 60 mg/kg i/p, days 7-16
Description: as §1, §2, §6, §7, §8

leukemia La [7] = assay: Kinetic curves of spleen mass, leukemia La in mice (FIG. 1); format: in vivo, mouse; details: equimolar single doses 0.2 mmol/kg i/p
Protocol: Leukemia La was grafted intraperitoneally by means of a suspension of leukemic cells in a physiological solution. The inoculum contained 10^8 of leukemic cells. Compound (IV), Ftorafur and 5-fluorouracyl were also administered intraperitoneally so that the first administration was effected 3 hours after the tumor grafting, and then--on a daily basis over the period of seven days.
Determined were the variations of mass (M) of mice spleen in g over 14 days (.tau.). The obtained data were used to plot a graph in coordinates M-.tau. represented in FIG. 1.

grafted tumors = assay: Antitumor activity on grafted tumors, overall assessment; format: in vivo, mice and rats
Description: as §1, §2, §6, §3
As the criterion of antitumor activity on solid tumors used is the inhibition (I) of the tumor volume gain in comparison with the control, expressed in percent and calculated by the formula: [formula] wherein Vc --average volume of the tumor in the control, […]

Solubility = format: physicochemical; details: water
[8] = Stability against hydrolysis; format: physicochemical; details: room temperature, pH 3 to 11, about 5 hours
[9] = Reaction of aqueous solutions; format: physicochemical
[10] = single dose 45 mg/kg i/p, days 1-6
[11] = Ca-755, C57Bl mice, single dose 65 mg/kg i/p, days 1-10

O=c1[nH]c(=O)n(C2CCCO2)cc1F (stereo not drawn) [Ftorafur, 1-(α-furanidyl)-5-fluorouracyl, reference compound]
LD50 ([1]; mouse, in vivo, ip, mice, intraperitoneal, I, II, III as emulsion in 10% aqueous Tween-80, IV, Ftorafur, 5-fluorouracyl as aqueous solutions): 640 mg/kg
Chemotherapeutic index I60 = LD10/ED60 (leukemia La [2]; days 1,5,9): 2.0
ELS (extension of average life span) (leukemia La [2]; [10]): 15%
kinetic criterion (.chi.) = 1-.phi.t/.phi.c (leukemia La [2]; [10]): 0.17
ELS (extension of average life span) (leukemia La [2]; single dose 300 mg/kg i/p, days 1,5,9): 60%
Inhibition of tumor volume gain (melanoma B-16; single dose 300 mg/kg, days 1,5,9, mode of grafting printed i/p): 10%
Inhibition of tumor volume gain (Schwetz erythroleukosis; single dose 90 mg/kg i/p): 15%
activity in respect of sarcoma 180 (sarcoma 180): rather high activity
activity in respect of Harding-Passey melanoma (Harding-Passey melanoma): rather high activity
activity in respect of Walker carcinosarcoma (Walker carcinosarcoma): rather high activity
activity in respect of alveolar carcinoma of liver [3]: rather high activity
toxicity / side effects in words [4]: inhibits hemopoiesis and causes complications on the side of the gastro-intestinal tract
inhibition of tumor growth, in words (adenocarcinoma 755): no antitumor activity

CC1(C)C=C(C(=O)n2c(=O)[nH]cc(F)c2=O)C(C)(C)N1[O] [IV, sodium salt of 3-(2,2,5,5-tetramethyl-1-oxyl-Δ^3-pyrrolin-3-oyl)-5-fluorouracyl]
toxicity in words ([1]; general statement): low toxicity
toxicity compared with Ftorafur, in words ([1]; mice, i/p): approach toxicity of Ftorafur
less toxic than 5-fluorouracyl, fold ([1]; mice, i/p, relative to 5-fluorouracyl): 5 times
Toxicity, LD50 ([1]; mice, intraperitoneal, I, II, III as emulsion in 10% aqueous Tween-80, IV, Ftorafur, 5-fluorouracyl as aqueous solutions): 510 mg/kg
Chemotherapeutic index I60 = LD10/ED60 (leukemia La [2]; days 1,3,5,7,9): 4,2
kinetic criterion (.chi.) = 1-.phi.t/.phi.c (leukemia La [2]; single dose 75 mg/kg i/p, days 1-7 after grafting): 0,7
ELS (extension of average life span) (leukemia La [2]; single dose 75 mg/kg i/p, days 1-7 after grafting, control life span 6,5 days): 80%
ELS (extension of average life span) (leukemia La [2]; single dose 100 mg/kg i/p, days 1,3,5,7,9, control life span 6,5 days): 60%
chemotherapeutic index I60 relative to that of 5-fluorouracyl, fold (leukemia La [2]; leukemia La): 1.2 time
chemotherapeutic index I60 relative to that of Ftorafur, fold (leukemia La [2]; leukemia La): 2 times
therapeutic effect compared with 5-fluorouracyl, in words (leukemia La [2]; leukemia La): comparable with that of 5-fluorouracyl
effectiveness superior to Ftorafur, fold (leukemia La [2]; leukemia La, equitoxic doses, comparable treatment schedules): 5 times
Inhibition of tumor volume gain (melanoma B-16; single dose 75 mg/kg i/p, days 1-10): 30%
effectiveness relative to Ftorafur, fold (melanoma B-16; melanoma B-16, comparable doses and treatment procedures): 3 times
Chemotherapeutic index I60 = LD10/ED60 (leukemia L-1210; L-1210, BDF1 mice, i/p, days 1-7): 5,6
ELS (extension of average life span) (leukemia L-1210; L-1210, BDF1 mice, single dose 65 mg/kg i/p, days 1-9): 100%
ELS (extension of average life span) (leukemia L-1210; L-1210, BDF1 mice, single dose 75 mg/kg i/p, days 1-7): 60%
antitumor activity, leukemia L-1210, in words (leukemia L-1210; mouse, in vivo): high antitumor activity
Chemotherapeutic index I100 = LD10/ED100 (leukemia P-388; P-388, BDF1 mice, i/p, days 1,3,5,7,9): 4,2
ELS (extension of average life span) (leukemia P-388; P-388, BDF1 mice, single dose 75 mg/kg i/p, days 1-7): 90%
ELS (extension of average life span) (leukemia P-388; P-388, BDF1 mice, single dose 100 mg/kg i/p, days 1,3,5,7,9): 100%
antitumor activity, leukemia P-388, in words (leukemia P-388; mouse, in vivo): high antitumor activity
Inhibition of tumor volume gain [5, 11]: 70%
kinetic criterion (.chi.) = 1-.phi.t/.phi.c [5, 11]: 0.3
antitumor activity, adenocarcinoma 755, in words ([5]; mouse, in vivo): considerable antitumor activity
Inhibition of tumor volume gain ([6]; WCS, mongrel rats, single dose 60 mg/kg i/p, days 1-10): 75%
antitumor activity, Walker carcinosarcoma, in words ([6]; rat, in vivo): considerable antitumor activity
effectiveness relative to Ftorafur and 5-fluorouracyl, fold (Schwetz erythroleukosis; comparable doses and treatment procedures): 2-3 times
Inhibition of tumor volume gain (Schwetz erythroleukosis; single dose 75 mg/kg i/p): 45%
Inhibition of tumor volume gain (Geren carcinoma): 20%
inhibition of leukemia La (spleen mass gain), in words (leukemia La [7]; C 57 B1 mice, daily over seven days): most effective in inhibition of leukemia La
activity relative to 5-fluorouracyl (spleen mass gain), in words (leukemia La [7]): by several times superior
antileukemic effect, in words (grafted tumors; in vivo): high antileukemic activity
effect on solid tumors, in words (grafted tumors; solid tumors): most active; also recorded: high antitumor activity in respect of solid tumors
solubility in water (Solubility): very well soluble in water
stability against hydrolysis [8]: do not undergo any noticeable hydrolytical decomposition
reaction of aqueous solutions [9]: alkaline reaction
inhibition of tumor growth, in words (adenocarcinoma 755): considerable inhibition of the tumor growth
